The source of these data is patent publication US6753337B2, “Alkynyl containing hydroxamic acid compounds as matrix metalloproteinase/tace inhibitors” (Wyeth Holdings Corporation, priority 1999, dated 2004).

Read-outs that look alike come from different tables or passages of the source.

Holding throughout (assay type): biochemical
In one assay the target is T1, MMP-1 (Homo sapiens, UniProt P03956).
T1 sequence (P03956 100-469): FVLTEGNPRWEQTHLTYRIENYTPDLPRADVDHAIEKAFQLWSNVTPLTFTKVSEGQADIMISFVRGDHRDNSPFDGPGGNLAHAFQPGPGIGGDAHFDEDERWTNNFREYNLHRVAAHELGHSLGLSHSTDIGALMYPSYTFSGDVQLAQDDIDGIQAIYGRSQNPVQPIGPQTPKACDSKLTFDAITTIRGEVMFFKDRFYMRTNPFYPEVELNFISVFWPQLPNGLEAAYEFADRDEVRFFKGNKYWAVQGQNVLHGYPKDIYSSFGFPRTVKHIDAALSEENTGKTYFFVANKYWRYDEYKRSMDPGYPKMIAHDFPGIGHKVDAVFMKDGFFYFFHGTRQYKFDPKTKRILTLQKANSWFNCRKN
In words: MMP-1 inhibition (thiopeptide or fluorescent peptide substrate). The settings on record: read-out: MMP1 IC50. How it is done:
(§1) These standard pharmacological test procedures are based on the cleavage of a thiopeptide substrates such as Ac-Pro-Leu-Gly(2-mercapto-4-methyl-pentanoyl)-Leu-Gly-OEt by the matrix metalloproteinases MMP-1, MMP-13 (collagenases) or MMP-9 (gelatinase), which results in the release of a substrate product that reacts colorimetrically with DTNB (5,5′-dithiobis(2-nitro-benzoic acid)). The enzyme activity is measured by the rate of the color increase. The thiopeptide substrate is made up fresh as a 20 mM stock in 100% DMSO and the DTNB is dissolved in 100% DMSO as a 100 mM stock and stored in the dark at room temperature. Both the substrate and DTNB are diluted together to 1 mM with substrate buffer (50 mM HEPES pH 7.5, 5 mM CaCl2) before use. The stock of enzyme is diluted with buffer (50 mM HEPES, pH 7.5, 5 mM CaCl2, 0.02% Brij) to the desired final concentration. The buffer, enzyme, vehicle or inhibitor, and DTNB/substrate are added in this order to a 96 well plate (total reaction volume of 200 μl) and the increase in color is monitored spectrophotometrically for 5 minutes at 405 nm on a plate reader and the increase in color over time is plotted as a linear line.
(§2) Alternatively, a fluorescent peptide substrate is used. In this test procedure, the peptide substrate contains a fluorescent group and a quenching group. Upon cleavage of the substrate by an MMP, the fluorescence that is generated is quantitated on the fluorescence plate reader. The assay is run in HCBC assay buffer (50 mM HEPES, pH 7.0, 5 mM Ca^+2, 0.02% Brij, 0.5% Cysteine), with human recombinant MMP-1, MMP-9, or MMP-13. The substrate is dissolved in methanol and stored frozen in 1 mM aliquots. For the assay, substrate and enzymes are diluted in HCBC buffer to the desired concentrations. Compounds are added to the 96 well plate containing enzyme and the reaction is started by the addition of substrate. The reaction is read (excitation 340 nm, emission 444 nm) for 10 min. and the increase in fluorescence over time is plotted as a linear line.
(§3) For either the thiopeptide or fluorescent peptide test procedures, the slope of the line is calculated and represents the reaction rate. The linearity of the reaction rate is confirmed (r^2>0.85). The mean (x±sem) of the control rate is calculated and compared for statistical significance (p<0.05) with drug-treated rates using Dunnett's multiple comparison test. Dose-response relationships can be generated using multiple doses of drug and IC50 values with 95% CI are estimated using linear regression.

For the next assay, the target named is MMP-9 (Homo sapiens, UniProt P14780). In words: MMP-9 inhibition (thiopeptide or fluorescent peptide substrate). The settings on record: read-out: MMP9 IC50. How it is done:
as §1, §2, §3

A further assay addresses MMP-13 (Homo sapiens, UniProt P45452). As to the kind of experiment: MMP-13 inhibition (thiopeptide or fluorescent peptide substrate). The settings on record: read-out: MMP13 IC50. How it is done: The enzyme activity is measured by the rate of the color increase. The thiopeptide substrate is made up fresh as a 20 mM stock in 100% DMSO and the DTNB is dissolved in 100% DMSO as a 100 mM stock and stored in the dark at room temperature. Both the substrate and DTNB are diluted together to 1 mM with substrate buffer (50 mM HEPES pH 7.5, 5 mM CaCl2) before use. The stock of enzyme is diluted with buffer (50 mM HEPES, pH 7.5, 5 mM CaCl2, 0.02% Brij) to the desired final concentration.
as §2, with “substrate.” for “substrate. The reaction is read (excitation 340 nm, emission 444 nm) for 10 min. and the increase in fluorescence over time is plotted as a linear line.”
For either the thiopeptide or fluorescent peptide test procedures, the slope of the line is calculated and represents the reaction rate. […] The mean (x±sem) of the control rate is calculated and compared for statistical significance (p<0.05) with drug-treated rates using Dunnett's multiple comparison test.

MMP-9, sequence (P14780 94-707): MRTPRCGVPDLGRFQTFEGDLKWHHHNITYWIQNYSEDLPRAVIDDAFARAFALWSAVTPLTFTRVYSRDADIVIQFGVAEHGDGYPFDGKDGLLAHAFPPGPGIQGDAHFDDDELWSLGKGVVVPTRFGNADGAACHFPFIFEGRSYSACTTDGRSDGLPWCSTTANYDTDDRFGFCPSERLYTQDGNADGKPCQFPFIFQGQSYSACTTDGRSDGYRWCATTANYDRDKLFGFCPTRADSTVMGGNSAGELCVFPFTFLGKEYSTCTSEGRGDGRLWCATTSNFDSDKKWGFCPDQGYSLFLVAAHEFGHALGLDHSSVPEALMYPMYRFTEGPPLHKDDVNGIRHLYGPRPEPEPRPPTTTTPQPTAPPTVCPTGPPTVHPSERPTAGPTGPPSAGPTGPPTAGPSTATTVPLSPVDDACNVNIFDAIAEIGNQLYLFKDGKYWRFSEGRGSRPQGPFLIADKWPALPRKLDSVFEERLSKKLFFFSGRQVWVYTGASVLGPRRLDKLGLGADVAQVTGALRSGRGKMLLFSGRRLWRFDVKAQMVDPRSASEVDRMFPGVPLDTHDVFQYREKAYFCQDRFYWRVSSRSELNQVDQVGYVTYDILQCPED

Broadly, the IC50 is the point on the concentration scale where inhibition reaches its midpoint. `CC#CCOc1ccc(S(=O)(=O)C2(C(=O)NO)CCN(Cc3ccc(Br)cc3)CC2)cc1` [Example 1, 1-(4-Bromo-benzyl)-4-(4-but-2-ynyxoy-benzenesulfonyl)-piperdine-4-carboxylic acid hydroxyamide]: the figures for the concentration for half-maximal inhibition (IC50) at MMP-1, at MMP-9 and at MMP-13 were 3300 nM, 385 nM and 155 nM, respectively.
The corresponding values for `CC#CCOc1ccc(S(=O)(=O)C2(C(=O)NO)CCN(Cc3ccc(OC)cc3)CC2)cc1` [Example 2, 4-(4-But-2-ynyloxy-benzenesulfonyl)-1-(4-methoxy-benzyl)-piperdine-4-carboxylic acid hydroxyamide] are 2570 nM, 164 nM and 39.6 nM.
For `CC#CCOc1ccc(S(=O)(=O)C2(C(=O)NO)CCN(Cc3ccc(Cl)cc3)CC2)cc1` [Example 3, 4-(4-But-2-ynyloxy-benzenesulfonyl)-1-(4-chloro-benzyl)-piperdine-4-carboxylic acid hydroxyamide], in that order: 9000 nM, 280 nM and 90 nM.
Regarding `CC#CCOc1ccc(S(=O)(=O)C2(C(=O)NO)CCN(Cc3ccccc3)CC2)cc1` [Example 4, 1-Benzyl-4-(4-but-2-ynyloxy-benzenesulfonyl)-piperdine-4-carboxylic acid hydroxyamide], the figures for the 50% inhibitory concentration (IC50) on MMP-1, at MMP-9 and on MMP-13 were 2600 nM, 148 nM and 47.3 nM, respectively.
The corresponding values for `CCC#CCOc1ccc(S(=O)(=O)C2(C(=O)NO)CCN(Cc3ccc(Br)cc3)CC2)cc1` [Example 5, 1-(4-Bromo-benzyl)-4-(4-pent-2-ynyloxy-benzenesulfonyl)-piperdine-4-carboxylic acid hydroxyamide] are 300 nM, 400 nM and 180 nM.
For `CC#CCOc1ccc(S(=O)(=O)C2(C(=O)NO)CCN(Cc3ccc(F)cc3)CC2)cc1` [Example 7, 4-(4-But-2-ynyloxy-benzenesulfonyl)-1-(4-fluoro-benzyl)-piperidine-4-carboxylic acid hydroxyamide], the half-maximal inhibitory concentration (IC50) on MMP-1 was 2500 nM; on MMP-9, 225 nM; at MMP-13, 59.4 nM.
The corresponding values for `CC#CCOc1ccc(S(=O)(=O)C2(C(=O)NO)CCN(Cc3ccc(C#N)cc3)CC2)cc1` [Example 8, 4-(4-But-2-ynyloxy-benzenesulfonyl)-1-(4-cyano-benzyl)-piperidine-4-carboxylic acid hydroxyamide] are 4700 nM, 218 nM and 72 nM.
For `CC#CCOc1ccc(S(=O)(=O)C2(C(=O)NO)CCN(Cc3ccc(C)cc3)CC2)cc1` [Example 9, 4-(4-But-2-ynyloxy-benzenesulfonyl)-1-(4-methyl-benzyl)-piperidine-4-carboxylic acid hydroxamide], the half-inhibitory concentration (IC50) at MMP-1 was found to be 2100 nM; on MMP-9 it was 96.2 nM; at MMP-13, 35.2 nM.
The corresponding values for `C#CCOc1ccc(S(=O)(=O)C2(C(=O)NO)CCN(Cc3ccc(Br)cc3)CC2)cc1` [Example 11, 1-(4-Bromo-benzyl)-4-(4-prop-2-ynyloxy-benzenesulfonyl)-piperdine-4-carboxylic acid hydroxyamide] are 143 nM, 5.8 nM and 3.1 nM.
For `O=C(NO)C1(S(=O)(=O)c2ccc(OCC#CCN3CCCCC3)cc2)CCN(Cc2ccc(Br)cc2)CC1` [Example 12, 1-(4-bromo-benzyl)-4-[4-(4-piperidin-1-yl-but-2-ynyloxy)-benzenesulfonyl]-piperidine-4-carboxylic acid hydroxyamide], in that order: 15000 nM, 1000 nM and 1500 nM.
`CC#CCOc1ccc(S(=O)(=O)C2(C(=O)NO)CCOCC2)cc1` [Example 20, 4-{[4-(2-butynyloxy)phenyl]sulfonyl}-N-hydroxytetrahydro-2H-pyran-4-carboxamide]: the concentration for half-maximal inhibition (IC50) stood at 2640 nM at MMP-1 (cells that print nM), 568 nM on MMP-9 and 121 nM at MMP-13.
Take `CC#CCOc1cccc(S(=O)(=O)C2(C(=O)NO)CCN(Cc3ccccc3)CC2)c1` [Example 21, 1-benzyl-4-{[3-(2-butynyloxy)phenyl]sulfonyl}-N-hydroxy-4-piperdine carboxamide]: the figures for the IC50 at MMP-1, on MMP-9 and on MMP-13 were above 10000 nM, 3500 nM and 858 nM, respectively.
On to `CC#CCOc1ccc(S(=O)(=O)C2(C(=O)NO)CCN(C(C)C)CC2)cc1` [Example 22, 4-{[4-(2-butynyloxy)phenyl]sulfonyl}-N-hydroxy-1-isopropyl-4-piperidine carboxamide], for which the results for the concentration for half-maximal inhibition (IC50) on MMP-1, at MMP-9 and on MMP-13 were above 10000 nM, 1810 nM and 1080 nM, respectively.
In the case of `CC#CCOc1ccc(S(=O)(=O)C2(C(=O)NO)CCN(Cc3cccnc3)CC2)cc1` [Example 23, 4-{[4-(2-butynyloxy)phenyl]sulfonyl}-N-hydroxy-1-(3-pyridinylmethyl)-4-piperidine carboxamide], the IC50 on MMP-1 (cells that print nM) was determined as 3210 nM; on MMP-9, 160 nM; at MMP-13 it was 64.4 nM.
For `CC#CCOc1ccc(S(=O)(=O)C2(C(=O)NO)CCCN(CC)C2)cc1` (stereo not drawn) [Example 24, 3-{[4-(2-Butynyloxy)phenyl]sulfonyl}-1-ethyl-N-hydroxy-3-piperidinecarboxamide], in that order: 5670 nM, 2080 nM and 463 nM.
For the compound `CC#CCOc1ccc(S(=O)(=O)C2(C(=O)NO)CCCN(Cc3ccc(Cl)cc3)C2)cc1` (stereo not drawn) [Example 25, 3-{[4-(2-butynyloxy)phenyl]sulfonyl}-1-(4-chlorobenzyl)-N-hydroxy-3-piperidinecarboxamide], the IC50 on MMP-1 was above 10000 nM; on MMP-9, 2740 nM; at MMP-13 it was 1180 nM.
In the case of `CC#CCOc1ccc(S(=O)(=O)C2(C(=O)NO)CCN(Cc3ccc(OCCN4CCCCC4)cc3)CC2)cc1` [Example 26, 4-{[4-(2-Butynyloxy)phenyl]sulfonyl}-1-[4-(2-piperidin-1-yl-ethoxy)-benzyl]-piperidine-4-carboxylic acid hydroxyamide], the values for the half-inhibitory concentration (IC50) at MMP-1 (cells that print nM), on MMP-9 and at MMP-13 were 1990 nM, 25.1 nM and 22.1 nM, respectively.
Turning to `CC#CCOc1ccc(S(=O)(=O)C2(C(=O)NO)CCN(C(CC)CC)CC2)cc1` [Example 27, 4-{[4-(2-Butynyloxy)phenyl]sulfonyl}-1-(3-pentanyl)-piperidine-4-carboxylic acid hydroxyamide], the values for the IC50 on MMP-1, at MMP-9 and at MMP-13 were above 10000 nM, 1540 nM and 426 nM, respectively.
